The values below come from patent publication US9821002B2, “Method for alleviating radiation injury with isorhamnetin-3-O-β-D-glucoside” (Sinotai Oncology Associate., Ltd., priority 2015, dated 2017).

For this test, the system named is NMuMG cells. The test is described as follows: Apoptosis assay (FITC Annexin V/PI) after ultraviolet irradiation. It counts as cell-based, mouse. As to conditions: 2 h pretreatment, ultraviolet 30 mJ/cm^2, 24 hours, mean ± SEM. As to the method:
Four groups of NMuMG cells (i.e., a normal control group referred to as Normal Control Group 1-A, an ultraviolet control group referred to as UV Control Group 1-A, and two experimental groups referred to as Experimental Groups 1-A to 2-A) and four groups of HaCaT cells (i.e., a normal control group referred to as Normal Control Group 1-B, an ultraviolet control group referred to as UV Control Group 1-B, and two experimental groups referred to as Experimental Groups 1-B to 2-B), were prepared based on the procedure set forth in “Source and cultivation of cell lines” of “Experimental materials”. The cells in each group were cultivated using 5 mL of a corresponding medium shown in Table 1 and a 6-cm Petri dish in an incubator (37° C., 5% CO2) for 24 hours. […]
Subsequently, the stained cells were analyzed using BD Accuri™ C6 flow cytometry, in which cells that could be stained with FITC Annexin V but not with PI (i.e., FITC Annexin V positive and PI negative) represented cells that were induced with early apoptosis; cells stained with both FITC Annexin V and PI (i.e., FITC Annexin V positive and PI positive) represented cells that were induced with late apoptosis; and cells that could not be stained with FITC Annexin V and PI (i.e., FITC Annexin V negative and PI negative) represented viable cells. […]

SMILES strings stand for the structures.

As for `COc1cc(-c2oc3cc(O)cc(O)c3c(=O)c2O[C@@H]2O[C@H](CO)[C@@H](O)[C@H](O)[C@H]2O)ccc1O` [isorhamnetin-3-O-β-D-glucoside], the Apoptosis percentage was 10.6 ± 2.8% (15 μM) and 10.5 ± 2.5 % (30 μM).
